Laboratory results published in publication PMC3320797 (Chemical biology & drug design, 2010).
Entries after “also recorded” stand apart in the source; their conditions may differ. Like-named read-outs stand apart in the source and are kept apart here.

Tests used:
[1] = Aqueous solubility; type: physicochemical; settings: aqueous solution
[2] = biological target: T1, p15-EC RNH fragment (Human immunodeficiency virus type 1 group M subtype B, UniProt P04585, DELINS1094-1102[…]); experiment: RNH activity of p15-EC RNH domain fragment, rapid fluorescence assay; type: biochemical, HIV-1 / Escherichia coli chimera; settings: for IC50: read-out: Inhibition of the p15-EC RNH fragment (IC50), 2 mM Mn2+
[3] = biological target: T2, HIV-1 RT DNA polymerase (Human immunodeficiency virus type 1 group M subtype B, UniProt P04585); experiment: RT RNA-dependent DNA polymerase activity assay; type: biochemical; settings: read-out: Inhibition of RT DNA polymerase activity (IC50)
[4] = biological target: p15-EC RNH domain fragment (Human immunodeficiency virus type 1 group M subtype B, UniProt P04585, DELINS1094-1102[…]); experiment: NMR 1H-15N HSQC chemical shift titration, dissociation constant; type: binding, HIV-1 / Escherichia coli chimera; settings: read-out: Inhibitor dissociation constant, KD
[5] = biological target: T1, p15-EC RNH fragment; settings: read-out: Inhibition of the p15-EC RNH fragment (IC50); ref [20]; cited from earlier work
[6] = biological target: T2, HIV-1 RT DNA polymerase; settings: read-out: Inhibition of RT DNA polymerase activity (IC50); ref [20]; cited from earlier work
[7] = system: HIV-1; settings: ref [21], [22]; cited from earlier work

O=C(O)c1ccc(-c2cccc(/C=N/NC(=O)c3ccc(O)c(O)c3)c2)cc1 [BHMP03]
Aqueous solubility relative to DHBNH [1]: more soluble in aqueous solution than the naphthyl-based DHBNH | Ratio of p15-EC RNH IC50 relative to BHMP07 ([2]; IC50 of BHMP03 versus BHMP07): more than 50 times | IC50 [2]: > 50 µM | IC50 [3]: > 50 µM

O=C(O)c1ccc(-c2cccc(/C=N/NC(=O)c3cc(O)c(O)c(O)c3)c2)cc1 [BHMP07]
Aqueous solubility relative to DHBNH [1]: higher aqueous solubility than DHBNH; also recorded: more soluble in aqueous solution than the naphthyl-based DHBNH | Solubility at the levels used in the NMR studies ([1]; inhibitor up to 0.8 mM, overnight incubation): not likely completely soluble in aqueous solution | IC50 [2]: 0.8 ± 0.06 µM | Kd ([4]; residue A76 (502), + 20 mM Mg2+): 311 ± 41.5 µM | Kd ([4]; residue A76 (502), no Mg2+): 192 ± 28.9 µM | Kd ([4]; residue I79 (505), + 20 mM Mg2+): 372 ± 60.2 µM | Kd ([4]; residue I79 (505), no Mg2+): 212 ± 20.1 µM | Kd ([4]; residue I114 (526), + 20 mM Mg2+): 321 ± 26.2 µM | Kd ([4]; residue I114 (526), no Mg2+): 217 ± 38.4 µM | Kd ([4]; residue K93, + 20 mM Mg2+): 454 ± 151 µM | Kd ([4]; residue K93, no Mg2+): 194 ± 18.3 µM | Kd ([4]; residue Q74 (500), + 20 mM Mg2+): 246 ± 72.8 µM | Kd ([4]; residue V124 (536), no Mg2+): 242 ± 18.2 µM | Kd ([4]; residue Y75 (501), + 20 mM Mg2+): 262 ± 135 µM | IC50 [3]: 0.3 ± 0.2 µM

COc1ccc2ccccc2c1/C=N/NC(=O)c1ccc(O)c(O)c1 [DHBNH, dihydroxy benzoyl naphthyl hydrazone]
IC50 [5]: 18.5 ± 3.4 µM | IC50 [6]: > 25 µM

CC(C)c1ccc(O)c(=O)c(O)c1 [β-thujaplicinol]
Antiviral activity [7]: neither of these compounds has antiviral activity
